Source: patent publication US4198421A, “Antiinflammatory 2-substituted-dibenzo[2,3:6,7]oxepino[4,5-d]imidazoles” (E. I. Du Pont de Nemours and Company, priority 1978, dated 1980)
Read-outs that look alike come from different tables or passages of the source.

Test system: adjuvant-induced arthritis
Test: Established Adjuvant-Induced Arthritis in Rats (A.A.)
Assay type: in vivo, Charles River Lewis male rats
Conditions: Rattus norvegicus, 168 h, read-out: A. A. ED50%
[1] = ED50% decrease from control paw volume (uninjected, left hind paw), established adjuvant-induced arthritis, oral gavage daily, 7 days, read by visual fit

Row | SMILES | ED50 (po) [mg/kg] | ED50 [1] [mg/kg]
1 | COc1ccc2c(c1)c(CC(=O)O)c(C)n2C(=O)c1ccc(Cl)cc1 [Indomethacin, indomethacin] | 0.3 | 
2 | CCCCC1C(=O)N(c2ccccc2)N(c2ccccc2)C1=O [Phenylbutazone, phenylbutazone] |  | 10
3 | CC(C)Cc1ccc(C(C)C(=O)O)cc1 (centres unmarked) [Ibuprofen, ibuprofen] |  | 100
4 | Fc1ccc2c(c1)Oc1ccccc1-c1nc(SC(F)(F)C(F)F)[nH]c1-2 [1 (k), 10-Fluoro-2-[(1,1,2,2-tetrafluoroethyl)thio]-1H-dibenzo[2,3:6,7]oxepino[4,5-d]imidazole] |  | < 27
5 | O=S(=O)(c1nc2c([nH]1)-c1ccc(F)cc1Oc1ccccc1-2)C(F)(F)C(F)F [Example 2, 10-Fluoro-2-[(1,1,2,2-tetrafluoroethyl)sulfonyl]-1H-dibenzo[2,3:6,7]oxepino[4,5-d]imidazole] |  | 4.5
